How the values were obtained:
[1] = system: Leukotriene C4 production in mouse peritoneal macrophages; assay: In vitro mouse peritoneal macrophage Leukotriene C4 inhibition; format: cell-based; settings: zymosan stimulated, read-out: Percent Inhibition
Protocol: IN VITRO MOUSE PERITONEAL MACROPHAGE LEUKOTRIENE C4 INHIBITION
The test described below measures the ability of compounds to inhibit the production of Leukotriene C4 in mouse peritoneal macrophages.
Mice (female, CD-1, weighing 25 g) are euthanized by exposure to carbon dioxide. The pertoneal cavity is exposed by peeling back the abdominal skin. A 5 mL portion of media (M199 containing 1% fetal bovine serum, 100 units/mL of penicillin, 100 μg/mL streptomycin, 20 units/mL of heparin and no glutamine) is injected into the exposed peritoneal cavity of each mouse. The lavage fluid is removed and pooled to yield proximately 1×10^6 macrophages/mL. A 2 mL portion of lavage fluid is added to each well of a 24 well sterile multidish and the marcophages are allowed to adhere to the plate for 2 hours at 37° C. in a 5% carbon dioxide atmosphere. The media is removed and each well is washed with 2 mL of phosphate buffered saline (PBS). A 1 mL portion of media, without heparin, but containing 5 μCi/mL of 3H-myoinositol is added to each well and the plates are incubated overnight at 37° C. in a 5% carbon dioxide atmosphere. The media is removed and the cells are washed twice with 2 mL portions of PBS. A 1 mL portion of Puck's saline formulation A containing 1 mM calcium chloride, 1 mM magnesium chloride and 10 mM lithium chloride is added to each well. (The Puck's formulation is made first as a 10× solution which contains 4 g of potassium chloride, 80 g of sodium chloride and 10 g of glucose per liter. The Puck's saline formulation A is made using 10 mL of the 10× Puck's formulation, 0.47 mL of 7.5% sodium bicarbonate and 2 mL of 1M N-2-hydroxyethylpiperazine-N'-2-ethanesulfonic acid per 100 mL.)
Compounds are dissolved in dimethyl sulfoxide. Compounds are tested at concentrations of 10, 1 and 0.1 μM. Each concentration is tested in duplicate.
A 1 μL portion of compound solution or vehicle (DMSO) is added to each well and the plates are incubated for 15 minutes at 37° C. in a 5% carbon dioxide atmosphere. Zymosan is then added to provide a final concentration of 50 μg/mL in each well and the plate is incubated for 1 to 2 hours at 37° C. in a 5% carbon dioxide atmosphere.
Following incubation 200 μL portions of media are transferred to 12×75 mm tubes. The tubes are either assayed immediately or stored at -20° C. until they can be assayed.
The media is assayed for the presence of Leukotriene C4 by radioimmunoassay which is performed according to the manufacturer's instructions (Advanced Magnetics; Cambridge, Mass.). Inhibition of LTC4 production is calculated as the ratio of the amount of LTC4 formed in the presence (LTC4 +cpd) and absence (LTC4 no cpd)of compound according to the equation below. [formula] IC50 values (concentration of compound producing a 50% inhibition of LTC4 production) are calculated by linear regression analysis of percentage inhibition versus log compound concentration plots.

[2] = system: Leukotriene B4 production in rat blood; assay: Rat ex vivo Leukotriene B4 inhibition; format: in vivo; settings: 2 hours post dose, ex vivo A23187 challenge; for inhibition in vivo at 50 mg/kg: 50 mg/Kg oral
Protocol: RAT EX VIVO LEUKOTRIENE B4 INHIBITION
The test method described below measures the ability of a compound when administrated orally to rats to inhibit the production of Leukotriene B4 in their blood which is drawn and challenged.
Rats (CD, male, non-fasted, 250 g) are lightly anesthetized with carbon dioxide and an approximately 0.75 mL sample of whole blood is obtained via cardiac puncture. The sample is dispensed into 12×75 mm polypropylene tubes containing 8-10 μL of 10,000 units/mL heparin, mixed and then maintained on ice. The rats are allowed to recover approximately one hour then dosed orally with compound dissolved in PEG 400 at a 5 mL/Kg volume. Five (5) rats are utilized per group. Two (2) hours post dose the rats are again anesthetized with carbon dioxide and the blood sampled again via cardiac puncture.
Duplicate 200 μL portions of blood are added to 1.0 mL polypropylene tubes. A 10 μL portion of 1 mM A23 187 Calcium Ionophore in dimethyl sulfoxide/Tris buffer is added to each tube. The tubes are gently vortexed then incubated in a 37° C. water bath for 30 minutes. The tubes are then centrifuged at 4000 rpm for 10 minutes. 50 μL portions of plasma are transferred to 1.0 mL tubes containing 200 μL of methanol. The tubes are vortexed then placed in the freezer overnight.
The tubes are removed from the freezer then centrifuged at 4000 rpm for 10 minutes. 20 μL portions of the methanol/plasma supernatant and 10 μl methanol dilutions of LTB4 standard are transferred to 96 well v-bottom microtiter plates. The plates are vacuum dried at 40° C. A 40 μL portion of LTB4 radioimmunoassay buffer is added to each well. The plate is bath sonicated for 5 minutes then assayed according to the manufacturer's instructions (Advanced Magnetics; Cambridge, Mass.). Percent inhibition values are obtained by comparing the level of LTB4 in the post-dose samples to the level in the pre-dose samples according to the equation below. [formula]

[3] = system: Leukotriene B4 production in whole human blood; assay: In vitro human whole blood Leukotriene B4 inhibition; format: cell-based; settings: A23187 stimulated, read-out: IC50 (concentration producing 50% inhibition of LTB4 production)
Protocol: IN VITRO HUMAN WHOLE BLOOD LEUKOTRIENE B4 INHIBITION
The test method described below measures the ability of compounds to inhibit the production of Leukotriene B4 in whole human blood.
Whole human blood is collected by venipuncture into a 60 cc syringe containing 100 units of heparin.
compounds are disolved in dimethyl sulfoxide. Compounds are tested at concentrations of 100, 33, 11, 3.7, 1.2 and 0.41 μM. Each concentration is tested in duplicate.
Aliquots (1 μL) of compound solution are added to 1 mL polyethylene tubes followed by the addition of 500 μL portion of heparinized blood. The tubes are mixed thoroughly then allowed to preincubate at ambient temperature for 15 minutes. A 25 μL portion of 1 mM Calcium Ionophore A23187 in dimethyl sulfoxide/Tris buffer is added to the tubes. The tubes are mixed thoroughly then incubated at 37° C. for 30 minutes.
The tubes are centrifuged at 2000 rpm for 10 minutes. 100 μL portions of plasma are transferred to 1 mL polyethylene tubes containing 400 μL portions of methanol. The tubes are vortexed then frozen at -20° C. overnight.
The tubes are centrifuged for 10 minutes then 100 μL portions of methanol supernatant are transferred to a 96 well microtiter plate. 10 μL portions are transferred from this plate to a 96 well assay plate. Methanol dilutions of LTB4 standard curve are added to the assay plate. 10 μL portions of blank methanol/plasma supernatant are added to each standard curve well. The assay plate is vacuum dried at ambient temperature. The radioimmunoassay buffer is added, the plate is bath-sonicated for 5 minutes then assayed according to the manufacturer's instructions (Advanced Magnetics; Cambridge, Mass.). Inhibition of LTB4 production is calculated as the ratio of the amount of LTB4 formed in the presence (LTB4 +cpd) and absence (LTB4 no cpd) of compound according the equation below. [formula] IC50 values (concentration of compound producing a 50% inhibition of LTB4 production) are calculated by linear regression analysis of percentage inhibition versus log compound concentration plots.

Row | IC50 [3] | Compound | inhibition at 0.1 µM [1] | inhibition at 1 µM [1] | inhibition at 10 µM [1] | inhibition in vivo at 50 mg/kg [2] | inhibition in vivo at 10 mg/kg ([2]; 10 mg/Kg oral)
1 | 1700 nM | CC(C)N(O)C(=O)Nc1ccc(Cc2ccc(NC(=O)N(O)C(C)C)cc2)cc1 [Example 2, 4,4'-Methylenebis(1-hydroxy-1-isopropyl-3-phenylurea)] | 32% | 55% | 54% | 34% | 
2 | 320 nM | O=C(Nc1ccc(Cc2ccc(NC(=O)N(O)Cc3ccccc3)cc2)cc1)N(O)Cc1ccccc1 [Example 3, 4,4'-Methylenebis(1-hydroxy-1-benzyl-3-phenylurea)] | 25% | 56% | 74% | 6% | 
3 | 550 nM | CN(O)C(=O)Nc1ccc(Cc2ccc(NC(=O)N(C)O)cc2)cc1 [Example 1, 4,4'-Methylenebis(1-hydroxy-1-methyl-3-phenylurea)] | 61% | 95% | 100% | 93% | 16%

Reference: US6121323A, “Bishydroxyureas” (3M Innovative Properties Company, priority 1997, dated 2000)
